Experimental data as given in patent US20240409530A1, “Disubstituted Pyrimidine Compounds for Ketohexokinase Inhibition” (Centennial Therapeutics, LLC, priority 2023, published 2024).

Assays:
Experiment in all cases: KHK inhibition assay, recombinant isozyme (coupled pyruvate kinase/LDH, NADH absorbance 340 nm)
Type in all cases: biochemical
Details in all cases: recombinant isozyme 6 nM, fructose 2 mM, ATP 0.1 mM
[1] = biological target: Human recombinant KHK-A (Homo sapiens (Human), UniProt P50053)
Experimental: (§1) Determination of Human and Rat recombinant KHK-A and KHK-C isozyme IC50 Values
(§2) An assay reagent cocktail was prepared by combining NADH, water, TEA, KCl, MgCl2, PEP, ATP, DTT, coupling enzymes (pyruvate kinase and lactate dehydrogenase, LDH) to final concentrations as shown in Table B.
(§3) To this was added the relevant KHK isozyme to a final concentration of 6 nM. Aliquots of each inhibitor compound were diluted via 5-fold serial dilutions to produce final concentrations ranging from 1000 nM to 0.064 nM. The inhibitor aliquots were added to the assay reagent cocktail containing KHK with fructose (at a concentration of 2 mM) in a 96-well plate. The absorbance at 340 nm was measured via spectrophotometry and inhibition was analyzed using non-linear regression.

[2] = biological target: Human recombinant KHK-C (Homo sapiens (Human), UniProt P50053)
Experimental: as §1, §2, §3

[3] = biological target: Rat recombinant KHK-A (Rattus norvegicus (Rat), UniProt Q02974)
Experimental: as §1, §2, §3

[4] = biological target: Rat recombinant KHK-C (Rattus norvegicus (Rat), UniProt Q02974)
Experimental: as §1, §2, §3

Sequence of Rat recombinant KHK-A (Q02974 other isoform, or with tags, fused parts or gaps): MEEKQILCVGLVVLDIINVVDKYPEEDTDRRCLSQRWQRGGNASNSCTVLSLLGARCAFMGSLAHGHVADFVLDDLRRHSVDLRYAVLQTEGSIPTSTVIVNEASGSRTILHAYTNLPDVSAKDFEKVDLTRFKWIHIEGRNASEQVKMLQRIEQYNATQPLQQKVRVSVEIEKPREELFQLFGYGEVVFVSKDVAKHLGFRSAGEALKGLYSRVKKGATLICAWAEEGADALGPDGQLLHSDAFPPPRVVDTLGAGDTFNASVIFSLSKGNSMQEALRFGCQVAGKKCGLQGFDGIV
Sequence of Human recombinant KHK-A (P50053 other isoform, or with tags, fused parts or gaps): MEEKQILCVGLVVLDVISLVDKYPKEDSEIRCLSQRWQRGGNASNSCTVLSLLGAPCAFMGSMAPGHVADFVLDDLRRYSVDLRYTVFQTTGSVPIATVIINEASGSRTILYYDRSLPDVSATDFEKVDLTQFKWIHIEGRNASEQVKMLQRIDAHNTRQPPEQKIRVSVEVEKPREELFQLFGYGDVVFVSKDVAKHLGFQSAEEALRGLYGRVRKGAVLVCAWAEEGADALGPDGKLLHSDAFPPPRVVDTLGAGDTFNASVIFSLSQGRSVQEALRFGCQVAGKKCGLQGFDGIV
Sequence of Rat recombinant KHK-C (Q02974 whole entry): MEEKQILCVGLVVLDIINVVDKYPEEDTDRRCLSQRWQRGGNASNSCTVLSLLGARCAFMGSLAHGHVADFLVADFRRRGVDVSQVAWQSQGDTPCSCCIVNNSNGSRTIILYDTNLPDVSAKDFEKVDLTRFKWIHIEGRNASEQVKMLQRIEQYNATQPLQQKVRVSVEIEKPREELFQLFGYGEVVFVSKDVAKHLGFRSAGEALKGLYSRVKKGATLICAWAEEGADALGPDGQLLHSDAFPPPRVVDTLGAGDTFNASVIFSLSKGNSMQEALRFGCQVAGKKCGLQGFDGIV
Sequence of Human recombinant KHK-C (P50053 whole entry): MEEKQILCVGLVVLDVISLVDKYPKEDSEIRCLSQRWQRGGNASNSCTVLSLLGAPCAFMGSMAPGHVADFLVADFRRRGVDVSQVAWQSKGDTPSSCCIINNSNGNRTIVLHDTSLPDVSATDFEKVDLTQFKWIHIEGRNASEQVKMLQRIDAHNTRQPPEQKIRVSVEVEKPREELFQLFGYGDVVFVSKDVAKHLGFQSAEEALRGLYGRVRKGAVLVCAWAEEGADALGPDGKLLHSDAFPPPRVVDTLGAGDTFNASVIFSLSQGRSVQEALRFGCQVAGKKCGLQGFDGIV

IC50 [1] | IC50 [2] | IC50 [3] | IC50 [4] | Structure (SMILES)
– | 16.8 nM | – | – | O[C@@H]1CN(c2nc(-c3cnn(C4CNC4)c3)cc(C(F)(F)F)n2)[C@H]1C(F)(F)F (racemic) [Compound A31, (2R,3R)-1-{4-[1-(3-azetidinyl)-4-pyrazolyl]-6-(trifluoromethyl)-2-pyrimidinyl}-2-(trifluoromethyl)-3-azetidinol]
– | 25.4 nM | – | – | C[C@H]1[C@H](O)CN1c1nc(-c2cnn(C3CN(C)C3)c2)c(C2CC2)c(C(F)(F)F)n1 [Compound A34, (2S,3R)-1-{5-cyclopropyl-4-[1-(1-methyl-3-azetidinyl)-4-pyrazolyl]-6-(trifluoromethyl)-2-pyrimidinyl}-2-methyl-3-azetidinol]
– | 36.6 nM | – | – | COc1c(-c2cnn(CC(=O)N3CCNCC3)c2)nc(N2CC[C@@H]2C(F)F)nc1C(F)(F)F [Compound A36, 2-(4-{2-[(R)-2-(difluoromethyl)-1-azetidinyl]-5-methoxy-6-(trifluoromethyl)-4-pyrimidinyl}-1-pyrazolyl)-1-(1-piperazinyl)-1-ethanone]
– | 11.9 nM | – | – | O=C(Cn1cc(-c2nc(N3CC[C@@H]3C(F)F)nc(C(F)F)c2Cl)cn1)N1CCNCC1 [Compound A37, 2-(4-{2-[(R)-2-(difluoromethyl)-1-azetidinyl]-5-chloro-6-(difluoromethyl)-4-pyrimidinyl}-1-pyrazolyl)-1-(1-piperazinyl)-1-ethanone]
– | 110 nM | – | – | O=C(Cn1cc(-c2nc(N3CC[C@@H]3C(F)F)nc(C(F)F)c2F)cn1)N1CCNCC1 [Compound A39, 2-(4-{2-[(R)-2-(difluoromethyl)-1-azetidinyl]-6-(difluoromethyl)-5-fluoro-4-pyrimidinyl}-1-pyrazolyl)-1-(1-piperazinyl)-1-ethanone]
– | 33.2 nM | – | – | CCc1c(-c2cnn(CC(=O)N3CCNCC3)c2)nc(N2CC[C@@H]2C(F)F)nc1C(F)F [Compound A40, 2-(4-{2-[(R)-2-(difluoromethyl)-1-azetidinyl]-6-(difluoromethyl)-5-ethyl-4-pyrimidinyl}-1-pyrazolyl)-1-(1-piperazinyl)-1-ethanone]
– | 17.1 nM | – | – | CCc1c(-c2cnn(CC(=O)N3CCNCC3)c2)nc(N2CC[C@@H]2C(F)F)nc1C(F)(F)F [Compound A41, 2-(4-{2-[(R)-2-(difluoromethyl)-1-azetidinyl]-5-ethyl-6-(trifluoromethyl)-4-pyrimidinyl}-1-pyrazolyl)-1-(1-piperazinyl)-1-ethanone]
– | 61 nM | – | – | COc1c(-c2cnn(CC(=O)N3CCNCC3)c2)nc(N2CC[C@@H]2C(F)F)nc1C(F)F [Compound A44, 2-(4-{2-[(R)-2-(difluoromethyl)-1-azetidinyl]-6-(difluoromethyl)-5-methoxy-4-pyrimidinyl}-1-pyrazolyl)-1-(1-piperazinyl)-1-ethanone]

Continued, compound first:

Structure (SMILES) | IC50 [1] | IC50 [2] | IC50 [3] | IC50 [4]
CN1CC(n2cc(-c3cc(C(F)(F)F)nc(N4C[C@@H](O)[C@@H]4C(F)(F)F)n3)cn2)C1 (racemic) [Compound A25, (2R,3R)-1-{4-[1-(1-methyl-3-azetidinyl)-4-pyrazolyl]-6-(trifluoromethyl)-2-pyrimidinyl}-2-(trifluoromethyl)-3-azetidinol] | 2.2 nM | 5.22 nM | 5.7 nM | 15 nM
C[C@H]1CCN1c1nc(-c2cnn(CC(=O)N3CCNCC3)c2)c(Cl)c(C(F)(F)F)n1 [Compound A4, 2-(4-{2-[(S)-2-methyl-1-azetidinyl]-5-chloro-6-(trifluoromethyl)-4-pyrimidinyl}-1-pyrazolyl)-1-(1-piperazinyl)-1-ethanone] | 1.8 nM | 5.94 nM | 1.3 nM | 4.9 nM
COc1c(-c2cnn(CC(=O)N3CCNCC3)c2)nc(N2CC[C@@H]2C)nc1C(F)(F)F [Compound A5, 2-(4-{2-[(S)-2-methyl-1-azetidinyl]-5-methoxy-6-(trifluoromethyl)-4-pyrimidinyl}-1-pyrazolyl)-1-(1-piperazinyl)-1-ethanone] | 69 nM | 30.6 nM | 26 nM | 44 nM
O=C(Cn1cc(-c2nc(N3CC[C@@H]3C(F)F)nc(C(F)F)c2C2CC2)cn1)N1CCNCC1 [Compound A13, 2-(4-{2-[(R)-2-(difluoromethyl)-1-azetidinyl]-5-cyclopropyl-6-(difluoromethyl)-4-pyrimidinyl}-1-pyrazolyl)-1-(1-piperazinyl)-1-ethanone] | – | 41.1 nM | – | –
O=C(Cn1cc(-c2cc(C(F)F)nc(N3CC[C@@H]3C(F)F)n2)cn1)N1CCNCC1 [Compound A14, 2-(4-{2-[(R)-2-(difluoromethyl)-1-azetidinyl]-6-(difluoromethyl)-4-pyrimidinyl}-1-pyrazolyl)-1-(1-piperazinyl)-1-ethanone] | – | 318 nM | – | –
COc1c(-c2cnn(CC(=O)N3CCNCC3)c2)nc(N2CC[C@@H]2C(F)(F)F)nc1C(F)F [Compound A15, 2-(4-{2-[(R)-2-(trifluoromethyl)-1-azetidinyl]-6-(difluoromethyl)-5-methoxy-4-pyrimidinyl}-1-pyrazolyl)-1-(1-piperazinyl)-1-ethanone] | – | 32.7 nM | – | –
O=C(Cn1cc(-c2nc(N3CC[C@@H]3C(F)F)nc(C(F)(F)F)c2F)cn1)N1CCNCC1 [Compound A16, 2-(4-{2-[(R)-2-(difluoromethyl)-1-azetidinyl]-5-fluoro-6-(trifluoromethyl)-4-pyrimidinyl}-1-pyrazolyl)-1-(1-piperazinyl)-1-ethanone] | – | 47.8 nM | – | –
O=C(Cn1cc(-c2nc(N3CC[C@@H]3C(F)F)nc(C(F)(F)F)c2C2CC2)cn1)N1CCNCC1 [Compound A17, 2-(4-{2-[(R)-2-(difluoromethyl)-1-azetidinyl]-5-cyclopropyl-6-(trifluoromethyl)-4-pyrimidinyl}-1-pyrazolyl)-1-(1-piperazinyl)-1-ethanone] | – | 74.9 nM | – | –
O=C(Cn1cc(-c2cc(C(F)F)nc(N3CC[C@@H]3C(F)(F)F)n2)cn1)N1CCNCC1 [Compound A20, 2-(4-{2-[(R)-2-(trifluoromethyl)-1-azetidinyl]-6-(difluoromethyl)-4-pyrimidinyl}-1-pyrazolyl)-1-(1-piperazinyl)-1-ethanone] | – | 133 nM | – | –
C[C@H]1CCN1c1nc(-c2cnn(CC(=O)N3CCNCC3)c2)c(F)c(C(F)F)n1 [Compound A22, 2-(4-{2-[(S)-2-methyl-1-azetidinyl]-6-(difluoromethyl)-5-fluoro-4-pyrimidinyl}-1-pyrazolyl)-1-(1-piperazinyl)-1-ethanone] | – | 65.8 nM | – | –
COc1c(-c2cnn(CC(=O)N3CCNCC3)c2)nc(N2CC[C@@H]2C)nc1C(F)F [Compound A23, 2-(4-{2-[(S)-2-methyl-1-azetidinyl]-6-(difluoromethyl)-5-methoxy-4-pyrimidinyl}-1-pyrazolyl)-1-(1-piperazinyl)-1-ethanone] | – | 54.6 nM | – | –
O=C(Cn1cc(-c2nc(N3CC[C@@H]3C(F)(F)F)nc(C(F)(F)F)c2Cl)cn1)N1CCNCC1 [Compound A29, 2-(4-{2-[(R)-2-(trifluoromethyl)-1-azetidinyl]-5-chloro-6-(trifluoromethyl)-4-pyrimidinyl}-1-pyrazolyl)-1-(1-piperazinyl)-1-ethanone] | – | 5.03 nM | – | –
C[C@H]1CCN1c1nc(-c2cnn(CC(=O)N3CCNCC3)c2)c(C2CC2)c(C(F)(F)F)n1 [Compound A30, 2-(4-{2-[(S)-2-methyl-1-azetidinyl]-5-cyclopropyl-6-(trifluoromethyl)-4-pyrimidinyl}-1-pyrazolyl)-1-(1-piperazinyl)-1-ethanone] | – | 41.3 nM | – | –
